Results: ChEMBL document CHEMBL1148995, “Antitumor agents from bohemic acid complex, VI. Schaunardimycin” (J Nat Prod, 1984)

Assays:
L1210 [1] = test: Antitumor activity against mouse L1210 cells implanted in CDF1 mouse assessed as median survival time at 25.6 mg/kg, ip single dose on day 1; type: functional; conditions: route intraperitoneal
L1210 [2] = test: Antitumor activity against mouse L1210 cells implanted in CDF1 mouse assessed as median survival time at 12.8 mg/kg, ip single dose on day 1; type: functional; conditions: route intraperitoneal
L1210 [3] = test: Antitumor activity against mouse L1210 cells implanted in CDF1 mouse assessed as median survival time at 6.4 mg/kg, ip single dose on day 1; type: functional; conditions: route intraperitoneal
L1210 [4] = test: Antitumor activity against mouse L1210 cells implanted in CDF1 mouse assessed as median survival time at 3.2 mg/kg, ip single dose on day 1; type: functional; conditions: route intraperitoneal
L1210 [5] = test: Antitumor activity against mouse L1210 cells implanted in CDF1 mouse assessed as median survival time at 1.6 mg/kg, ip single dose on day 1; type: functional; conditions: route intraperitoneal
L1210 [6] = test: Antitumor activity against mouse L1210 cells implanted in CDF1 mouse assessed as median survival time at 0.8 mg/kg, ip single dose on day 1; type: functional; conditions: route intraperitoneal
L1210 [7] = test: Antitumor activity against mouse L1210 cells implanted in CDF1 mouse assessed as median survival time at 0.4 mg/kg, ip single dose on day 1; type: functional; conditions: route intraperitoneal
L1210 [8] = test: Antitumor activity against mouse L1210 cells implanted in CDF1 mouse assessed as median survival time at 0.2 mg/kg, ip single dose on day 1; type: functional; conditions: route intraperitoneal
L1210 [9] = test: Antitumor activity against mouse L1210 cells implanted in CDF1 mouse assessed as median survival time at 6.4 mg/kg, ip qd for 1 to 5 days; type: functional; conditions: route intraperitoneal
L1210 [10] = test: Antitumor activity against mouse L1210 cells implanted in CDF1 mouse assessed as median survival time at 3.2 mg/kg, ip qd for 1 to 5 days; type: functional; conditions: route intraperitoneal
L1210 [11] = test: Antitumor activity against mouse L1210 cells implanted in CDF1 mouse assessed as median survival time at 1.6 mg/kg, ip qd for 1 to 5 days; type: functional; conditions: route intraperitoneal
L1210 [12] = test: Antitumor activity against mouse L1210 cells implanted in CDF1 mouse assessed as median survival time at 0.8 mg/kg, ip qd for 1 to 5 days; type: functional; conditions: route intraperitoneal
L1210 [13] = test: Antitumor activity against mouse L1210 cells implanted in CDF1 mouse assessed as median survival time at 0.4 mg/kg, ip qd for 1 to 5 days; type: functional; conditions: route intraperitoneal
L1210 [14] = test: Antitumor activity against mouse L1210 cells implanted in CDF1 mouse assessed as median survival time at 0.2 mg/kg, ip qd for 1 to 5 days; type: functional; conditions: route intraperitoneal
L1210 [15] = test: Antitumor activity against mouse L1210 cells implanted in CDF1 mouse at 25.6 mg/kg, ip single dose on day 1 relative to control; type: functional; conditions: route intraperitoneal
L1210 [16] = test: Antitumor activity against mouse L1210 cells implanted in CDF1 mouse at 12.8 mg/kg, ip single dose on day 1 relative to control; type: functional; conditions: route intraperitoneal
L1210 [17] = test: Antitumor activity against mouse L1210 cells implanted in CDF1 mouse at 6.4 mg/kg, ip single dose on day 1 relative to control; type: functional; conditions: route intraperitoneal
L1210 [18] = test: Antitumor activity against mouse L1210 cells implanted in CDF1 mouse at 3.2 mg/kg, ip single dose on day 1 relative to control; type: functional; conditions: route intraperitoneal
L1210 [19] = test: Antitumor activity against mouse L1210 cells implanted in CDF1 mouse at 1.6 mg/kg, ip single dose on day 1 relative to control; type: functional; conditions: route intraperitoneal
L1210 [20] = test: Antitumor activity against mouse L1210 cells implanted in CDF1 mouse at 0.8 mg/kg, ip single dose on day 1 relative to control; type: functional; conditions: route intraperitoneal
L1210 [21] = test: Antitumor activity against mouse L1210 cells implanted in CDF1 mouse at 0.4 mg/kg, ip single dose on day 1 relative to control; type: functional; conditions: route intraperitoneal
L1210 [22] = test: Antitumor activity against mouse L1210 cells implanted in CDF1 mouse at 0.2 mg/kg, ip single dose on day 1 relative to control; type: functional; conditions: route intraperitoneal
L1210 [23] = test: Antitumor activity against mouse L1210 cells implanted in CDF1 mouse at 6.4 mg/kg, ip qd for 1 to 5 days relative to control; type: functional; conditions: route intraperitoneal
L1210 [24] = test: Antitumor activity against mouse L1210 cells implanted in CDF1 mouse at 3.2 mg/kg, ip qd for 1 to 5 days relative to control; type: functional; conditions: route intraperitoneal
L1210 [25] = test: Antitumor activity against mouse L1210 cells implanted in CDF1 mouse at 1.6 mg/kg, ip qd for 1 to 5 days relative to control; type: functional; conditions: route intraperitoneal
L1210 [26] = test: Antitumor activity against mouse L1210 cells implanted in CDF1 mouse at 0.8 mg/kg, ip qd for 1 to 5 days relative to control; type: functional; conditions: route intraperitoneal
L1210 [27] = test: Antitumor activity against mouse L1210 cells implanted in CDF1 mouse at 0.4 mg/kg, ip qd for 1 to 5 days relative to control; type: functional; conditions: route intraperitoneal
Mus musculus = test: Toxicity in mouse L1210 cells implanted CDF1 mouse assessed as average weight gain at 25.6 mg/kg, ip single dose on day 1; type: organism-based; design: dose 25.6 mg/kg, route intraperitoneal; conditions: in vivo

`CC[C@@]1(O)C[C@H](O[C@H]2C[C@H](NC)[C@H](O[C@H]3C[C@H](O)[C@H](O)[C@H](C)O3)[C@H](C)O2)c2c(cc3c(c2O)C(=O)c2c(O)ccc(O)c2C3=O)[C@H]1C(=O)OC` [SCHAUNARDIMYCIN] showed an MST (L1210 [1]) of 8 days, an MST (L1210 [2]) of 8 days and an MST (L1210 [3]) of 7 days. It also gave an MST (L1210 [4]) of 7 days, an MST (L1210 [5]) of 6.5 days and an MST (L1210 [6]) of 6 days. For the same compound, the MST (L1210 [7]) was 6 days, the MST (L1210 [8]) was 6 days and the MST (L1210 [9]) was 8 days. It also gave an MST (L1210 [10]) of 8 days, an MST (L1210 [11]) of 7.5 days and an MST (L1210 [12]) of 7 days. It also gave an MST (L1210 [13]) of 7 days, an MST (L1210 [14]) of 7 days and a T/C (L1210 [15]) of 133%. The T/C (L1210 [16]) was 133%, the T/C (L1210 [17]) was 117% and the T/C (L1210 [18]) was 117%. The T/C (L1210 [19]) was 108%, the T/C (L1210 [20]) was 100% and the T/C (L1210 [21]) was 100%. The T/C (L1210 [22]) was 100%, the T/C (L1210 [23]) was 133% and the T/C (L1210 [24]) was 133%. The T/C (L1210 [25]) was 125%, the T/C (L1210 [26]) was 117% and the T/C (L1210 [27]) was 117%. For the same compound, the Activity (Mus musculus) was -1.4 g.
